Experimental data reported in the CheMixHub viscosity set.

Assay: xn = mol fraction of the nth substance listed

CC(=O)N(C)C + COC(=O)OC
298.15 K, 101 kPa
Settings	viscosity [mPa·s]
x2 = 0.0376	0.937
x2 = 0.0836	0.914
x2 = 0.1443	0.887
x2 = 0.2234	0.854
x2 = 0.3348	0.807
x2 = 0.4705	0.757
x2 = 0.5544	0.726
x2 = 0.6212	0.702
x2 = 0.6902	0.679
x2 = 0.7541	0.659
x2 = 0.8244	0.636
x2 = 0.9102	0.608

CCCCCCCCCO + COC(=O)OC
Settings	viscosity [mPa·s]
293.15 K, 101 kPa, x1 = 0.008	0.63
293.15 K, 101 kPa, x2 = 0.06435	9.044
293.15 K, 101 kPa, x2 = 0.1251	7.282
293.15 K, 101 kPa, x2 = 0.2318	5.067
293.15 K, 101 kPa, x2 = 0.322	3.834
293.15 K, 101 kPa, x2 = 0.4095	2.962
293.15 K, 101 kPa, x2 = 0.4994	2.281
293.15 K, 101 kPa, x2 = 0.6032	1.706
293.15 K, 101 kPa, x2 = 0.699	1.3
293.15 K, 101 kPa, x2 = 0.7961	0.991
293.15 K, 101 kPa, x2 = 0.8901	0.776
303.15 K, 100 kPa, x2 = 0.1	5.632
303.15 K, 100 kPa, x2 = 0.1999	4.161
303.15 K, 100 kPa, x2 = 0.3	3.081
303.15 K, 100 kPa, x2 = 0.4	2.342
303.15 K, 100 kPa, x2 = 0.5	1.81
303.15 K, 100 kPa, x2 = 0.6	1.384
303.15 K, 100 kPa, x2 = 0.7	1.06
303.15 K, 100 kPa, x2 = 0.8	0.831
303.15 K, 100 kPa, x2 = 0.9	0.658
303.15 K, 101 kPa, x1 = 0.00584	0.55
303.15 K, 101 kPa, x2 = 0.04989	6.721
303.15 K, 101 kPa, x2 = 0.1183	5.358
303.15 K, 101 kPa, x2 = 0.2164	3.942
303.15 K, 101 kPa, x2 = 0.3115	2.991
303.15 K, 101 kPa, x2 = 0.4106	2.28
303.15 K, 101 kPa, x2 = 0.4935	1.832
303.15 K, 101 kPa, x2 = 0.6036	1.368
303.15 K, 101 kPa, x2 = 0.7016	1.059
303.15 K, 101 kPa, x2 = 0.7951	0.835
303.15 K, 101 kPa, x2 = 0.8982	0.657
308.15 K, 100 kPa, x2 = 0.1	4.801
308.15 K, 100 kPa, x2 = 0.1999	3.592
308.15 K, 100 kPa, x2 = 0.3	2.702
308.15 K, 100 kPa, x2 = 0.4	2.074
308.15 K, 100 kPa, x2 = 0.5	1.627
308.15 K, 100 kPa, x2 = 0.6	1.253
308.15 K, 100 kPa, x2 = 0.7	0.972
308.15 K, 100 kPa, x2 = 0.8	0.769
308.15 K, 100 kPa, x2 = 0.9	0.617
313.15 K, 100 kPa, x2 = 0.1	4.133
313.15 K, 100 kPa, x2 = 0.1999	3.123
313.15 K, 100 kPa, x2 = 0.3	2.398
313.15 K, 100 kPa, x2 = 0.4	1.848
313.15 K, 100 kPa, x2 = 0.5	1.467
313.15 K, 100 kPa, x2 = 0.6	1.141
313.15 K, 100 kPa, x2 = 0.7	0.893
313.15 K, 100 kPa, x2 = 0.8	0.713
313.15 K, 100 kPa, x2 = 0.9	0.579
313.15 K, 101 kPa, x1 = 0.00538	0.492
313.15 K, 101 kPa, x2 = 0.06799	4.566
313.15 K, 101 kPa, x2 = 0.1245	3.835
313.15 K, 101 kPa, x2 = 0.2254	2.876
313.15 K, 101 kPa, x2 = 0.2945	2.39
313.15 K, 101 kPa, x2 = 0.433	1.677
313.15 K, 101 kPa, x2 = 0.5255	1.342
313.15 K, 101 kPa, x2 = 0.6009	1.118
313.15 K, 101 kPa, x2 = 0.6997	0.882
313.15 K, 101 kPa, x2 = 0.8024	0.702
313.15 K, 101 kPa, x2 = 0.9014	0.571
318.15 K, 100 kPa, x2 = 0.1	3.586
318.15 K, 100 kPa, x2 = 0.1999	2.735
318.15 K, 100 kPa, x2 = 0.3	2.137
318.15 K, 100 kPa, x2 = 0.4	1.662
318.15 K, 100 kPa, x2 = 0.5	1.317
318.15 K, 100 kPa, x2 = 0.6	1.04
318.15 K, 100 kPa, x2 = 0.7	0.823
318.15 K, 100 kPa, x2 = 0.8	0.665
318.15 K, 100 kPa, x2 = 0.9	0.545
323.15 K, 100 kPa, x2 = 0.1	3.119
323.15 K, 100 kPa, x2 = 0.1999	2.397
323.15 K, 100 kPa, x2 = 0.3	1.888
323.15 K, 100 kPa, x2 = 0.4	1.494
323.15 K, 100 kPa, x2 = 0.5	1.199
323.15 K, 100 kPa, x2 = 0.6	0.951
323.15 K, 100 kPa, x2 = 0.7	0.763
323.15 K, 100 kPa, x2 = 0.8	0.621
323.15 K, 100 kPa, x2 = 0.9	0.514
